# Test results as given in patent US11406620B2, “Use of carbamate compound for preventing or treating diseases associated with increase in late sodium current” (SK BIOPHARMACEUTICALS CO., LTD., priority 2017, dated 2022).
# What was measured:
# [1] = target: hNav1.5 sodium channel, fast current (Homo sapiens, UniProt Q14524); experiment: Whole cell patch clamp, fast sodium current of hNav1.5 in HEK293 cells; settings: pH 7.4
# Protocol: (§1) To study the […] Nav1.5 channel, a cell line stably expressing […] (Gene ID: 6331, https://www.ncbi.nlm.nih.gov/gene/6331) encoding a human Nav1.5 channel in HEK293 cells was used.
# (§2) Pulse-protocol uses a protocol that gives a −15 mV stimulus for 385 ms at a holding voltage of −120 mV, and then returns to a holding voltage of −120 mV, and the current generated with the −15 mV stimulus (fast current) and the current just before returning to −120 mV (late current) was measured.
# (§3) The composition of the external solution used in the experiment is as follows: 137 mM NaCl, 4 mM KCl, 1.8 mM CaCl2) mM, 1 mM MgCl2, 10 mM HEPES, 11 mM D-Glucose, pH 7.4 (NaOH), 280 mOsm.
# (§4) The composition of the internal solution used in the experiment is as follows: 130 mM CsCl, 1 mM MgCl2, 7 mM NaCl, 5 mM HEPES, 5 mM EGTA, pH 7.2 (CsOH), 270 mOsm.
# [2] = target: hNav1.5 sodium channel, late current (Homo sapiens, UniProt Q14524); experiment: Whole cell patch clamp, late sodium current of hNav1.5 in HEK293 cells (veratridine-activated); settings: human, pH 7.4
# Protocol: as §1, §2, §3, §4
# [3] = target: human recombinant sodium ion channel Nav1.5 (hNav1.5), late current (Homo sapiens, UniProt Q14524); experiment: as above
# Sequence of human recombinant sodium ion channel Nav1.5 (hNav1.5), late current (Q14524 whole entry): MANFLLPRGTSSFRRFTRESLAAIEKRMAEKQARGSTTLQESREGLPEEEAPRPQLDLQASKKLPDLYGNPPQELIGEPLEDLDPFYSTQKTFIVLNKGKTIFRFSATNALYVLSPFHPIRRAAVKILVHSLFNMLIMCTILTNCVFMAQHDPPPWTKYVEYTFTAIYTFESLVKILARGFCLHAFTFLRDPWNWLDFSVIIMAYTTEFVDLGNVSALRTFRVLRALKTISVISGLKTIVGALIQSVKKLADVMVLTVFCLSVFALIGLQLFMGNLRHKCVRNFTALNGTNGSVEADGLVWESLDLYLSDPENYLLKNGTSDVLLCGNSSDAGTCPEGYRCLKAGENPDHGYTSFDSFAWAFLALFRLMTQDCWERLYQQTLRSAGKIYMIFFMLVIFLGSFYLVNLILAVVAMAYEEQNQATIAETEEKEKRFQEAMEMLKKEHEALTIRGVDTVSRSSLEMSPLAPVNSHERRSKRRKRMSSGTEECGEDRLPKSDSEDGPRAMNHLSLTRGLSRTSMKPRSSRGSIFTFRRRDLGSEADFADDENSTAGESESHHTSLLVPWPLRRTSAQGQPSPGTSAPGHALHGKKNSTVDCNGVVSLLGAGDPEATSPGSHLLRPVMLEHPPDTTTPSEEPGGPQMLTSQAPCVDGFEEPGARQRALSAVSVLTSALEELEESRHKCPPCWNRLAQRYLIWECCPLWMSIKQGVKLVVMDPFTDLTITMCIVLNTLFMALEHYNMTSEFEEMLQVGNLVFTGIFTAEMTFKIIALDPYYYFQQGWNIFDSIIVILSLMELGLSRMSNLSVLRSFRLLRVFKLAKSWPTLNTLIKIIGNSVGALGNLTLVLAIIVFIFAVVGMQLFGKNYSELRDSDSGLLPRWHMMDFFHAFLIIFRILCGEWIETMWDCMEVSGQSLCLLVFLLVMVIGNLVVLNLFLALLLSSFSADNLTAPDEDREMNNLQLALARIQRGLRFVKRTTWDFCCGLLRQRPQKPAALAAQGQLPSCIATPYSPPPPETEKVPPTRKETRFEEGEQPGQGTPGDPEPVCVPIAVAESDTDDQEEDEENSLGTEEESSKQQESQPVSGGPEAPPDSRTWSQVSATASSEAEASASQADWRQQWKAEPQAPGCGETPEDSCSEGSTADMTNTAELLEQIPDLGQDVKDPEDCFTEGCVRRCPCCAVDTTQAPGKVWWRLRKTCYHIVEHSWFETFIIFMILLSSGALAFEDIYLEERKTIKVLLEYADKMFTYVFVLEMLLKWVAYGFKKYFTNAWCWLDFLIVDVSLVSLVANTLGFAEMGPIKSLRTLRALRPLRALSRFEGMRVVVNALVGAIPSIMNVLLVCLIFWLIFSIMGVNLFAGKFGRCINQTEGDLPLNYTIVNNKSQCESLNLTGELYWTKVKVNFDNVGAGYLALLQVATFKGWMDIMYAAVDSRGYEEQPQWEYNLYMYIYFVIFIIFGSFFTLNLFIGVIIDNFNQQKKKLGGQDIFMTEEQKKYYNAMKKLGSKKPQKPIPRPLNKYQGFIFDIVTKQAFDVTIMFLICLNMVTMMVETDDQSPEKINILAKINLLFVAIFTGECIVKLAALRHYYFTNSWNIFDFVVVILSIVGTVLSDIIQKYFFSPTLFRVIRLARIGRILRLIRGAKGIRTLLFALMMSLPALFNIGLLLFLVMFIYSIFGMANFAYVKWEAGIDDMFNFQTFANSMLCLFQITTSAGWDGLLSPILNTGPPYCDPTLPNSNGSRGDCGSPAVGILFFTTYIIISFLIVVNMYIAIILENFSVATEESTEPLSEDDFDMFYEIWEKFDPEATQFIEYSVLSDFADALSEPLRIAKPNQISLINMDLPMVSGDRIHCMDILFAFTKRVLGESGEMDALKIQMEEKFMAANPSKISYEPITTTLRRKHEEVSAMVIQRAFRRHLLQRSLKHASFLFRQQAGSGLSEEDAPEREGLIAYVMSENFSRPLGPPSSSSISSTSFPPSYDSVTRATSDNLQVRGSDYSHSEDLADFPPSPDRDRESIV
# Protocol: as §1, §2, §3, §4
# [4] = HEK293 cells stably expressing human Nav1.5 (SCN5A)
# Sequence of hNav1.5 sodium channel, fast current (Q14524 whole entry): as above
SMILES,"inhibition at 10 μM [1, 4] [%]","inhibition at 30 μM [1, 4] [%]","inhibition at 100 μM [1, 4] [%]","inhibition at 300 μM [1, 4] [%]","inhibition at 10 μM [2, 4] [%]","inhibition at 30 μM [2, 4] [%]","inhibition at 100 μM [2, 4] [%]","inhibition at 300 μM [2, 4] [%]",Inhibition ratio of late current/fast current ([3]; 10 μM),Inhibition ratio of late current/fast current ([3]; 30 μM),Inhibition ratio of late current/fast current ([3]; 100 μM),Inhibition ratio of late current/fast current ([3]; 300 μM),further results
NC(=O)N1c2ccccc2C=Cc2ccccc21 [Carbamazepine],7.7,12.3,24.5,51.4,20.4,36.2,65.4,86.9,2.6,2.9,2.7,1.7,–
"Nc1nnc(-c2cccc(Cl)c2Cl)c(N)n1 [Lamotrigine, lamotrigine]",8.3,16.6,29,51.2,10.7,32.9,56.7,80.1,1.3,2.0,2.0,1.6,–
"NC(=O)O[C@@H](Cn1ncnn1)c1ccccc1Cl [Test compound, carbamic acid (R)-1-(2-chlorophenyl)-2-tetrazol-2-yl-ethyl ester]",–,–,–,–,–,–,–,–,3.8,4.2,2.6,1.9,"inhibition at 10 μM [1]: 3%; inhibition at 30 μM [1]: 5.7%; inhibition at 100 μM [1]: 13%; inhibition at 300 μM [1]: 26.2%; inhibition at 10 μM [2]: 11.4%; inhibition at 30 μM [2]: 24%; inhibition at 100 μM [2]: 33.9%; inhibition at 300 μM [2]: 49.8%; Selectivity of inhibition of late versus fast sodium current (in words) ([3]; at a concentration in the drug effective concentration range, compared to the comparative compounds): inhibited the late sodium current more selectively than the fast sodium current"
